The source of these data is US12325708B2, “Adenosine 2 receptor antagonists” (Nektar Therapeutics, priority 2019, dated 2025).

For one data set, the target named is T1, A2A receptor (Homo sapiens, UniProt P29274).
T1 construct: purchased
The experiment in a line: Radioligand receptor binding assay, A2A receptor. Particulars: cell membranes overexpressing A2A receptor, read-out: Potency Ki A2A. On the procedure:
(§1) Using conventional receptor binding assay techniques, Compounds 1-24 were assayed to determine binding activity at the A2A, A1, and A3 receptors with the results shown in Table 7.
(§2) Receptor binding affinity of Compounds 1-24 was measured using radioligand binding assays using commercially obtained cell membranes prepared from cell lines overexpressing the A2A, A1, or A3 receptors. Briefly, cell membrane preparations from cells expressing the specific receptor were mixed with the appropriate [^3H]-labeled tracer for the specific receptor and the test compound or a known inhibitor of receptor-ligand binding. Following 60 min incubation at room temperature to allow receptor-ligand complex formation, the complexes were collected by filtration, washed with 50 mM Tris HCl (pH 7.5) to remove radioligand that was not receptor-bound, and the remaining radioactivity determined by liquid scintillation counting. Specific radioligand binding was calculated for each test compound concentration and IC50 values were determined by non-linear, regression analysis. Inhibition constants (Ki) were calculated using the equation of Cheng and Prusoff using the observed IC50 of the tested compound, the concentration of radioligand employed in the assay and the experimentally determined values for the Kd of the ligand.

Another data set has as its target T2, A1 receptor (Homo sapiens, UniProt P30542).
T2 construct: purchased
T2 sequence (P30542 1-326): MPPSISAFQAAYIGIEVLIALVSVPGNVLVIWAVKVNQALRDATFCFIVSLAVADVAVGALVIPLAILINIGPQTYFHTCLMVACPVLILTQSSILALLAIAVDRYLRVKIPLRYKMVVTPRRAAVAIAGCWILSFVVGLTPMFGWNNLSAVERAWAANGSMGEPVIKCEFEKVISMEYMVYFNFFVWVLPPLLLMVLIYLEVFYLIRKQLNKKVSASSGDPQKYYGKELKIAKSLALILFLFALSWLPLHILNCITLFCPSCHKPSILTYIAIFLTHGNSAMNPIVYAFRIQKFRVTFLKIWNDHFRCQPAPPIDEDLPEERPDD
The experiment in a line: Radioligand receptor binding assay, A1 receptor. As to conditions: cell membranes overexpressing A1 receptor, read-out: Potency Ki A1. On the procedure: as §1, §2

A short description of data set [1]: Plasma pharmacokinetic parameters following intravenous (IV) or oral (PO) administration in rats. Particulars: rat. The format is in vivo, Sprague-Dawley rats. The procedure: Adult male Sprague-Dawley rats (230-250 g) (Charles River Labs, Hollister, CA) were utilized for the study. There were 2 rats/group. All animals were food fasted overnight with water provided ad libitum at all times. Compounds 1, 4, 14 and 19 were synthesized as described in Examples 2, 17, 7, and 12, respectively, and formulated in injectable water.
(§3) The morning of each dosing, individual doses were calculated based on current body weights on the day of dosing. The jugular vein cannula (JVC) and the carotid artery cannula (CAC) were externalized, flushed with HEP/saline (10 IU/mL HEP/mL saline), plugged, and labeled to identify the jugular vein and the carotid artery. The IV group animals were dosed at 0.5 mg/kg of Compound 1, 4, 14 or 19, respectively, intravenously via the jugular vein, while the PO dose was administered 2.5 mg/kg of Compound 1, 4, 14 or 19, respectively, orally via gavage. For the IV group, immediately following the dose of test article, the dead volume of the catheter was flushed with 0.9% saline to ensure the animals received the full dose.
Approximately 0.2 mL of blood was collected per time point from JVC. Blood samples were collected at 2 (IV group only), 5, 15, 30, 60, 120, 240, 360, 420 (Compound 19 only), 480, 720 (Compound 19 only), and 1440 minutes via the CAC and transferred immediately into K2EDTA coated tubes pre-loaded 2 μl with quenching cocktail and placed on wet ice. The samples were centrifuged within 30 min after collection at 10,000 RPM for 5 minutes and the resulting plasma was separated. Plasma was transferred into microfuge tubes and placed on dry ice immediately. The plasma samples were stored at approximately −70° C. until bioanalysis.
Plasma samples were extracted by protein precipitation with acetonitrile containing 0.1% formic acid and doxepin for Compound 1 (available from Sigma-Aldrich) or SCH58261 for Compounds 4, 14 and 19 (available from Sigma-Aldrich) as an internal standard. Following vortex and centrifugation, supernatant was diluted 3-fold with water containing 0.1% formic acid and analyzed by LC-MS/MS.
Pharmacokinetic parameters (PK) were determined by non-compartmental analysis (NCA) using Phoenix 64 WinNonlin (version 8) and Dotmatics (version 5.0). Nominal doses and time points were used for the analysis.
The following PK parameters were estimated using plasma concentration-time profile of each animal with the results presented in Table 3: • AUCinf Area under the concentration-time from zero to time infinity • AUClast Area under the concentration-time from zero to time of last concentration value • F Bioavailability • CL Total body clearance • Cmax Maximum (peak) concentration • MRTlast Mean residence time to last observable concentration • Tmax Time to reach maximum or peak concentration following administration • Vss Volume of distribution at steady state
Adult male Sprague-Dawley rats (230-250 g) (Charles River Labs, Hollister, CA) were utilized for the study. There were 2 rats/group. All animals were food fasted overnight with water provided ad libitum at all times. Compound 1 was synthesized as described in Example 2 and formulated in injectable water.
as §3, with “1” for “1, 4, 14 or 19, respectively,”
Approximately 0.2 mL of blood was collected per time point from JVC. […]

Data set [2] in a line: Brain-to-plasma ratio (B/P) after administration. The format is in vivo, Sprague-Dawley rats. As to conditions: Sprague-Dawley, rat, brain-to-plasma ratio at 1 h. An excerpt:
A similar unexpected result was obtained when the phenyl ring present on Compound 1 was replaced with a halogen substituted pyridine. The halogen was previously introduced on the phenyl ring with the aim of blocking a possible metabolic soft-spot, with similar results observed as for Compound 1 in terms of exposure, clearance and bioavailability (Compound 10 and Compound 15). The substituted pyridine ring was designed to modulate the lipophilicity and polar surface area, as well as to address metabolic soft-spot concerns. Clearance and bioavailability parameters remain similar between substituted phenyl and pyridine (Compound 4 and Compound 14) analogs, which span a range in cLogP of 2.7-3.2. It was therefore surprising the significant improvement in exposure and clearance observed for the more lipophilic Compound 19. […] A compound is commonly deemed to be a brain penetrant if the brain-to-blood/plasma concentration ratio (B/P) is greater than 0.04 using methods as known in the art (Schaffer, Annual Reports in Medicinal Chemistry, 45:55-70, 2010).
Plasma pharmacokinetic parameters were determined following oral (PO) administration of further compounds essentially as described in Example 28 with the results shown in Table 6.

The mark [3] stands for this setting: male, Sprague-Dawley, plasma, 2.5 mg/kg, Table 6, oral (PO) administration essentially as described in Example 28.
Setting [4] is: male, Sprague-Dawley, plasma, intravenous, 0.5 mg/kg, Table 6, essentially as described in Example 28.
Where [5] appears, read: male, Sprague-Dawley, plasma, po, 2.5 mg/kg, Table 6, oral (PO) administration essentially as described in Example 28.
Setting [6] is: male, Sprague-Dawley, plasma, iv, 0.5 mg/kg, IV 0.5 mg/kg, injectable water.
Where [7] appears, read: male, Sprague-Dawley, plasma, oral, 2.5 mg/kg, Table 2 summary of Example 27, values marked 1 are the average of experiments.
[8] abbreviates: male, Sprague-Dawley, plasma, po, 2.5 mg/kg, PO 2.5 mg/kg via gavage, injectable water.

T1 sequence (P29274 whole entry): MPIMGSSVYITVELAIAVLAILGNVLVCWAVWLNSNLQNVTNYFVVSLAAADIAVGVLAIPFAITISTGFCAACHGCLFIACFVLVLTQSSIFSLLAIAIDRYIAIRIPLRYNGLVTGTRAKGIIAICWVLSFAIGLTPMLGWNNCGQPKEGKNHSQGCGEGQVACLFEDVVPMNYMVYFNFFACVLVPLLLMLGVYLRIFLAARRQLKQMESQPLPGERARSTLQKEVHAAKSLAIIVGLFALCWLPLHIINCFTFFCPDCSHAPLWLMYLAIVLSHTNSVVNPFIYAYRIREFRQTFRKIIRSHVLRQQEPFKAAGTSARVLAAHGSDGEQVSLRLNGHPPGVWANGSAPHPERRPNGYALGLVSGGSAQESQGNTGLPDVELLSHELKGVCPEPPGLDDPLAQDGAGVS

For `[2H]C([2H])(N1CCN(c2ccc(OCCOC)cc2)CC1)C([2H])([2H])N(C)c1cc2nc(-c3ncco3)nn2c(N)n1` [Compound 9, N^7-[2-{4-[4-(2-methoxyethoxy)phenyl]piperazin-1-yl}(^2H4)ethyl]-N^7-methyl-2-(1,3-oxazol-2-yl)[1,2,4]triazolo[1,5-c]pyrimidine-5,7-diamine], the Ki on A2A receptor was 6 nM; on A1 receptor it was more than 4000 nM. Besides, the AUC in data set [1] (setting [3]) came out at 1170 ng·h/mL. Also, in data set [1] (setting [4]), the clearance was 23 mL/min/kg. Besides, the bioavailability in data set [1] (setting [5]) amounted to 65%. Moreover, the Kp at 1 h in data set [2] (oral, 2.5 mg/kg, Table 6) came out at 0.04.

With `[2H]C([2H])([2H])OCCOc1ccc(N2CCN(CCN(C)c3cc4nc(-c5ncco5)nn4c(N)n3)CC2)c(F)c1` [Compound 10, N^7-{2-[4-(2-fluoro-4-{2-[(^2H3)methyloxy]ethoxy}phenyl)piperazin-1-yl]ethyl}-N^7-methyl-2-(1,3-oxazol-2-yl)[1,2,4]triazolo[1,5-c]pyrimidine-5,7-diamine], the values for the Ki at A2A receptor and at A1 receptor were 5.5 nM and more than 10000 nM, respectively. The molecule also gave an AUC in data set [1] (setting [3]) of 819 ng·h/mL. The clearance in data set [1] (setting [4]) worked out at 30 mL/min/kg. In data set [1] (setting [5]), this molecule showed a bioavailability of 57%. For the same molecule, in data set [2] (oral, 2.5 mg/kg, Table 6), the Kp at 1 h came to 0.09.

In the case of `[2H]C([2H])([2H])OC([2H])([2H])C([2H])([2H])Oc1ccc(N2CCN(CCN(C)c3cc4nc(-c5ncco5)nn4c(N)n3)CC2)cc1` [Compound 12, N^7-methyl-N^7-(2-{4-[4-({2-[(^2H3)methyloxy](^2H4)ethyl}oxy)phenyl]piperazin-1-yl}ethyl)-2-(1,3-oxazol-2-yl)[1,2,4]triazolo[1,5-c]pyrimidine-5,7-diamine], the values for the Ki at A2A receptor and at A1 receptor were 4 nM and more than 100000 nM, respectively. In data set [1] (setting [3]), this molecule registered an area under the curve (AUC) of 1000 ng·h/mL. This molecule returned a clearance in data set [1] (setting [4]) of 23 mL/min/kg. The bioavailability in data set [1] (setting [5]) came out at 56%. Moreover, the Kp at 1 h in data set [2] (oral, 2.5 mg/kg, Table 6) was found to be 0.03.

For the molecule `[2H]C([2H])([2H])OC([2H])([2H])C([2H])([2H])Oc1cnc(N2CCN(CCN(C)c3cc4nc(-c5ncco5)nn4c(N)n3)CC2)c(F)c1` [Compound 13, N^7-(2-{4-[3-fluoro-5-({2-[(^2H3)methyloxy](^2H4)ethyl}oxy)pyridin-2-yl]piperazin-1-yl}ethyl)-N^7-methyl-2-(1,3-oxazol-2-yl)[1,2,4]triazolo[1,5-c]pyrimidine-5,7-diamine], the Ki on A2A receptor amounted to 4 nM; on A1 receptor, 32400 nM. The same molecule gave an AUC in data set [1] (setting [3]) of 709 ng·h/mL. In data set [1] (setting [4]), this molecule registered a clearance of 33 mL/min/kg. Further, in data set [1] (setting [5]), the bioavailability came out at 57%. In addition, in data set [2] (oral, 2.5 mg/kg, Table 6), the Kp at 1 h is 0.06.

For `COCCOc1cnc(N2CCN(CCN(C)c3cc4nc(-c5ncco5)nn4c(N)n3)CC2)c(Cl)c1` [Compound 14, N^7-(2-{4-[3-chloro-5-(2-methoxyethoxy)pyridin-2-yl]piperazin-1-yl}ethyl)-N^7-methyl-2-(1,3-oxazol-2-yl)[1,2,4]triazolo[1,5-c]pyrimidine-5,7-diamine], the Ki at A2A receptor turned out to be 4 nM. Also, on A1 receptor, the Ki was 15000 nM. The molecule also registered a clearance in data set [1] (male, Sprague-Dawley, plasma, intravenous, 0.5 mg/kg, Table 2 summary of Example 27, values marked 1 are the average of experiments) of 17 mL/min/kg. Further, in data set [1] (setting [6]), the AUC(0-inf) is 526 ng·h/mL, the area under the curve AUC(0-t) was determined as 523 ng·h/mL, the MRT last is 0.977 h and the clearance was determined as 16.6 mL/min/kg. Besides, the Vd in data set [1] (male, Sprague-Dawley, plasma, iv, 0.5 mg/kg, IV 0.5 mg/kg, injectable water, read-out: Vss obs) was determined as 1.02 L/kg. In data set [1] (setting [7]), this molecule gave an AUC of 1480 ng·h/mL and a bioavailability of 56%. Also, in data set [1] (setting [8]), the AUC(0-inf) came to 1480 ng·h/mL, the AUC(0-t) is 1370 ng·h/mL and the MRT last amounted to 2.43 h. In addition, the Cmax in data set [1] (male, Sprague-Dawley, plasma, po, 2.5 mg/kg, PO 2.5 mg/kg via gavage, injectable water, read-out: Cmax) is 373 ng/mL. Further, in data set [1] (male, Sprague-Dawley, plasma, po, 2.5 mg/kg, PO 2.5 mg/kg via gavage, injectable water, read-out: Tmax), the Tmax is 1 h. Further, in data set [1] (IV), the “Total clearance as % liver blood flow” value is recorded as approximately 28 % liver blood flow. In addition, the F in data set [1] (PO 2.5 mg/kg vs IV 0.5 mg/kg) worked out at 56.1%. Also, the Kp at 1 h in data set [2] (Table 2) was determined as 0.025.

With `COCCOc1ccc(N2CCN(CCN(C)c3cc4nc(-c5ncco5)nn4c(N)n3)CC2)c(Cl)c1` [Compound 15, N^7-(2-{4-[2-chloro-4-(2-methoxyethoxy)phenyl]piperazin-1-yl}ethyl)-N^7-methyl-2-(1,3-oxazol-2-yl)[1,2,4]triazolo[1,5-c]pyrimidine-5,7-diamine], the Ki at A2A receptor came out at 2.3 nM; at A1 receptor, 3940 nM. The AUC in data set [1] (setting [3]) is 1160 ng·h/mL. The clearance in data set [1] (setting [4]) came to 20 mL/min/kg. In data set [1] (setting [5]), this molecule showed a bioavailability of 57%. Besides, the half-life in data set [1] (male, Sprague-Dawley, plasma, Table 6, printed in the CL column, read-out: t½ (converted)) was 1.2 h. For the same molecule, the Kp at 1 h in data set [2] (oral, 2.5 mg/kg, Table 6) came to 0.05.
